Assay results taken from paper PMC11845477, “Exploring the principles behind antibiotics with limited resistance” (Nature Communications, 2025).

Tests used:
[1] = test system: E. coli ATCC 25922 (SEN) and E. coli NCTC13846 (MDR); test: microbe, parasite or virus in culture; assay type: cell-based, Escherichia coli; settings: for MIC: Escherichia coli, across three biological replicates
Outline: (§1)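 Inoculum was 5 × 10^5 cells/mL in cation-adjusted MHB2 (SCH79797 excepted) across 11–16-step dilution series in duplicate. Relative MIC divides evolved-strain MIC by ancestor MIC.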

[2] = test system: K. pneumoniae ATCC 10031 (SEN) and K. pneumoniae ATCC 700603 (MDR); test: microbe, parasite or virus in culture; assay type: cell-based, Klebsiella pneumoniae; settings: for MIC: Klebsiella pneumoniae, across three biological replicates
Outline: as §1

[3] = test system: P. aeruginosa ATCC BAA-3107 (SEN) and P. aeruginosa LESB58 (MDR); test: microbe, parasite or virus in culture; assay type: cell-based, Pseudomonas aeruginosa; settings: for MIC: Pseudomonas aeruginosa, across three biological replicates
Outline: as §1

[4] = test system: E. coli ATCC 25922 (SEN) and E. coli NCTC13846 (MDR); test: Adaptive laboratory evolution (ALE), relative MIC of evolved lines; assay type: cell-based, Escherichia coli
Outline: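 Ten parallel populations per antibiotic–ancestor pair were evolved in MHB at 37 °C, starting near 50% growth-inhibiting drug. Every 72 h they were passaged into 0.5–2.5× increasing concentrations, keeping the highest-drug well with OD600 > 0.2.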

[5] = E. coli NCTC 13846 (EC-MDR), ancestor strain, sheet fig 2a
[6] = EC-MDR, Escherichia coli NCTC 13846, ancestor strain
[7] = EC-SEN, Escherichia coli ATCC 25922, ancestor strain
[8] = Escherichia coli ATCC 25922 (EC-SEN), ancestor strain, sheet fig 2a
[9] = Escherichia coli ATCC 25922 (EC-SEN)
[10] = Escherichia coli NCTC 13846 (EC-MDR)
[11] = KP-SEN, Klebsiella pneumoniae ATCC 10031, ancestor strain
[12] = Klebsiella pneumoniae ATCC 10031 (KP-SEN), ancestor strain, sheet fig 2a
[13] = Klebsiella pneumoniae ATCC 10031 (KP-SEN)
[14] = Klebsiella pneumoniae ATCC 700603 (KP-MDR)
[15] = P. aeruginosa ATCC BAA 3107 (PA-SEN), ancestor strain, sheet fig 2a
[16] = PA-SEN, Pseudomonas aeruginosa ATCC BAA 3107, ancestor strain
[17] = ATCCBAA3107, Pseudomonas aeruginosa ATCC BAA-3107 (PA-SEN)
[18] = ATCCBAA3107, Pseudomonas aeruginosa LESB 58 (PA-MDR)
[19] = EC-MDR (Escherichia coli NCTC 13846), evolved line 6 adapted to the named antibiotic
[20] = EC-MDR (Escherichia coli NCTC 13846), evolved line 7 adapted to the named antibiotic
[21] = EC-MDR (Escherichia coli NCTC 13846), evolved line 9 adapted to the named antibiotic
[22] = EC-MDR, Escherichia coli NCTC 13846, evolved line 1 versus ancestor
[23] = EC-MDR, Escherichia coli NCTC 13846, evolved line 2 versus ancestor
[24] = EC-MDR, Escherichia coli NCTC 13846, evolved line 3 versus ancestor
[25] = EC-MDR, Escherichia coli NCTC 13846, evolved line 4 versus ancestor
[26] = EC-MDR, Escherichia coli NCTC 13846, evolved line 6 versus ancestor
[27] = EC-MDR, Escherichia coli NCTC 13846, evolved line 7 versus ancestor
[28] = EC-MDR, Escherichia coli NCTC 13846, evolved line 8 versus ancestor
[29] = EC-MDR, Escherichia coli NCTC 13846, evolved line 9 versus ancestor
[30] = EC-SEN (Escherichia coli ATCC 25922), evolved line 2 adapted to the named antibiotic
[31] = EC-SEN (Escherichia coli ATCC 25922), evolved line 4 adapted to the named antibiotic
[32] = EC-SEN (Escherichia coli ATCC 25922), evolved line 5 adapted to the named antibiotic
[33] = EC-SEN, Escherichia coli ATCC 25922, evolved line 2 versus ancestor
[34] = EC-SEN, Escherichia coli ATCC 25922, evolved line 4 versus ancestor
[35] = EC-SEN, Escherichia coli ATCC 25922, evolved line 5 versus ancestor
[36] = EC-SEN, Escherichia coli ATCC 25922, evolved line 7 versus ancestor
[37] = EC-SEN, Escherichia coli ATCC 25922, evolved line 8 versus ancestor
[38] = EC-SEN, Escherichia coli ATCC 25922, evolved line 10 versus ancestor

CNC(C)C1CCC(N)C(OC2C(N)CC(N)C(OC3OCC(C)(O)C(NC)C3O)C2O)O1 (stereo not drawn) [Gentamicin]
0.25 mg/L: MIC of ancestor [2, 11] | MIC of ancestor [2, 12] | MIC [2, 13]
1 mg/L: MIC of ancestor [1, 5] | MIC of ancestor [1, 6] | MIC of ancestor [1, 7] | MIC of ancestor [1, 8] | MIC [1, 9] | MIC [1, 10] | MIC of ancestor [3, 15] | MIC of ancestor [3, 16] | MIC [3, 17]
2.107: Relative MIC (log10) [4, 31] | Relative MIC (log10) ([4]; EC-SEN (Escherichia coli ATCC 25922), evolved line 6 adapted to the named antibiotic)
128: Relative MIC [4, 34] | Relative MIC ([4]; EC-SEN, Escherichia coli ATCC 25922, evolved line 6 versus ancestor) | Relative MIC ([4]; Escherichia coli ATCC 25922 (EC-SEN), evolved line 4) | Relative MIC ([4]; Escherichia coli ATCC 25922 (EC-SEN), evolved line 6)
32: Relative MIC [4, 23] | Relative MIC [4, 27] | Relative MIC [4, 33] | Relative MIC ([4]; EC-SEN, Escherichia coli ATCC 25922, evolved line 3 versus ancestor) | Relative MIC [4, 36] | Relative MIC ([4]; Escherichia coli ATCC 25922 (EC-SEN), evolved line 2) | Relative MIC ([4]; Escherichia coli ATCC 25922 (EC-SEN), evolved line 3) | Relative MIC ([4]; Escherichia coli ATCC 25922 (EC-SEN), evolved line 7) | Relative MIC ([4]; Escherichia coli NCTC 13846 (EC-MDR), evolved line 2) | Relative MIC ([4]; Escherichia coli NCTC 13846 (EC-MDR), evolved line 7)
16 mg/L: MIC [2, 14]
1.505: Relative MIC (log10) [4, 20] | Relative MIC (log10) [4, 30]
1.806: Relative MIC (log10) ([4]; EC-MDR (Escherichia coli NCTC 13846), evolved line 3 adapted to the named antibiotic) | Relative MIC (log10) ([4]; EC-MDR (Escherichia coli NCTC 13846), evolved line 5 adapted to the named antibiotic) | Relative MIC (log10) [4, 19] | Relative MIC (log10) [4, 21] | Relative MIC (log10) [4, 32] | Relative MIC (log10) ([4]; EC-SEN (Escherichia coli ATCC 25922), evolved line 9 adapted to the named antibiotic)
64: Relative MIC [4, 22] | Relative MIC [4, 24] | Relative MIC [4, 25] | Relative MIC ([4]; EC-MDR, Escherichia coli NCTC 13846, evolved line 5 versus ancestor) | Relative MIC [4, 26] | Relative MIC [4, 28] | Relative MIC [4, 29] | Relative MIC [4, 35] | Relative MIC [4, 37] | Relative MIC ([4]; EC-SEN, Escherichia coli ATCC 25922, evolved line 9 versus ancestor) | Relative MIC ([4]; Escherichia coli ATCC 25922 (EC-SEN), evolved line 5) | Relative MIC ([4]; Escherichia coli ATCC 25922 (EC-SEN), evolved line 8) | Relative MIC ([4]; Escherichia coli ATCC 25922 (EC-SEN), evolved line 9) | Relative MIC ([4]; Escherichia coli NCTC 13846 (EC-MDR), evolved line 1) | Relative MIC ([4]; Escherichia coli NCTC 13846 (EC-MDR), evolved line 3) | Relative MIC ([4]; Escherichia coli NCTC 13846 (EC-MDR), evolved line 4) | Relative MIC ([4]; Escherichia coli NCTC 13846 (EC-MDR), evolved line 5) | Relative MIC ([4]; Escherichia coli NCTC 13846 (EC-MDR), evolved line 6) | Relative MIC ([4]; Escherichia coli NCTC 13846 (EC-MDR), evolved line 8) | Relative MIC ([4]; Escherichia coli NCTC 13846 (EC-MDR), evolved line 9)
16: Relative MIC [4, 38] | Relative MIC ([4]; Escherichia coli ATCC 25922 (EC-SEN), evolved line 10)
> 32 mg/L: MIC [3, 18]

O=c1ccc2ncc(=O)n3c2n1C[C@H]3CN1CCC(NCc2cc3c(cn2)OCCC3)CC1 [Gepotidacin]
4: Relative MIC ([4]; EC-SEN (Escherichia coli ATCC 25922), evolved line 8) | Relative MIC [4, 37]
64: Relative MIC ([4]; EC-SEN (Escherichia coli ATCC 25922), evolved line 7) | Relative MIC [4, 33] | Relative MIC [4, 36] | Relative MIC ([4]; EC-SEN, Escherichia coli ATCC 25922, evolved line 2)
0.125 mg/L: MIC of ancestor [2, 11] | MIC of ancestor [2, 12] | MIC [2, 13]
1.204: Relative MIC (log10) ([4]; EC-MDR (Escherichia coli NCTC 13846), evolved line 4 adapted to the named antibiotic)
2 mg/L: MIC of ancestor [1, 5] | MIC of ancestor [1, 6] | MIC [1, 10]
1.505: Relative MIC (log10) ([4]; EC-MDR (Escherichia coli NCTC 13846), evolved line 2 adapted to the named antibiotic) | Relative MIC (log10) [4, 19] | Relative MIC (log10) [4, 20] | Relative MIC (log10) [4, 21]
128: Relative MIC ([4]; EC-SEN (Escherichia coli ATCC 25922), evolved line 4) | Relative MIC ([4]; EC-SEN (Escherichia coli ATCC 25922), evolved line 5) | Relative MIC ([4]; EC-SEN (Escherichia coli ATCC 25922), evolved line 10) | Relative MIC ([4]; EC-SEN, Escherichia coli ATCC 25922, evolved line 1 versus ancestor) | Relative MIC [4, 34] | Relative MIC [4, 35] | Relative MIC [4, 38] | Relative MIC ([4]; EC-SEN, Escherichia coli ATCC 25922, evolved line 1)
16: Relative MIC ([4]; EC-MDR (Escherichia coli NCTC 13846), evolved line 4) | Relative MIC ([4]; EC-MDR (Escherichia coli NCTC 13846), evolved line 8) | Relative MIC [4, 22] | Relative MIC [4, 25] | Relative MIC [4, 28] | Relative MIC ([4]; EC-MDR, Escherichia coli NCTC 13846, evolved line 1)
1.806: Relative MIC (log10) [4, 30]
16 mg/L: MIC [2, 14]
1 mg/L: MIC of ancestor [1, 7] | MIC of ancestor [1, 8] | MIC [1, 9]
2.107: Relative MIC (log10) ([4]; EC-SEN (Escherichia coli ATCC 25922), evolved line 1 adapted to the named antibiotic) | Relative MIC (log10) [4, 31] | Relative MIC (log10) [4, 32]
32: Relative MIC ([4]; EC-MDR (Escherichia coli NCTC 13846), evolved line 2) | Relative MIC ([4]; EC-MDR (Escherichia coli NCTC 13846), evolved line 9) | Relative MIC ([4]; EC-MDR (Escherichia coli NCTC 13846), evolved line 10) | Relative MIC [4, 23] | Relative MIC [4, 26] | Relative MIC [4, 27] | Relative MIC [4, 29] | Relative MIC ([4]; EC-MDR, Escherichia coli NCTC 13846, evolved line 10 versus ancestor) | Relative MIC ([4]; EC-MDR, Escherichia coli NCTC 13846, evolved line 6) | Relative MIC ([4]; EC-MDR, Escherichia coli NCTC 13846, evolved line 7)
4 mg/L: MIC of ancestor [3, 15] | MIC of ancestor ([3]; P. aeruginosa LESB 58 (PA-MDR), ancestor strain, sheet fig 2a) | MIC of ancestor ([3]; PA-MDR, Pseudomonas aeruginosa LESB 58, ancestor strain) | MIC of ancestor [3, 16] | MIC [3, 17] | MIC [3, 18]
8: Relative MIC [4, 24] | Relative MIC ([4]; EC-MDR, Escherichia coli NCTC 13846, evolved line 3)
